Test results from the supplement of paper PMC10307832.

Columns and labels:
Experiment in all cases: relative viability (nuclei count vs DMSO), 5 days (fraction); higher = more cells survive
NCI-H838 = test system: NCI-H838
Procedure, shortened: (§1)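 Medians of duplicate plates are given as relative viability. That measure is the nuclei count in treated wells divided by the count in vehicle wells. Counts were taken on 4× images of lung cancer cell lines in 1536-well plates, 5 days after pin-tool dosing the day after seeding with one drug alone or a fixed anchor-drug dose plus five library-drug doses (not always all listed) in √10 steps.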

UMC-11 = test system: UMC-11
Procedure, shortened: as §1

HCC-15 = test system: HCC-15
Procedure, shortened: as §1

NCI-H1666 = test system: NCI-H1666
Procedure, shortened: as §1

LU99A = test system: LU99A
Procedure, shortened: as §1

LC-2-ad = test system: LC-2-ad
Procedure, shortened: as §1

SK-MES-1 = test system: SK-MES-1
Procedure, shortened: as §1

LCLC-97TM1 = test system: LCLC-97TM1
Procedure, shortened: as §1

ChaGo-K-1 = test system: ChaGo-K-1
Procedure, shortened: as §1

BEN = test system: BEN
Procedure, shortened: as §1

NCI-H661 = test system: NCI-H661
Procedure, shortened: as §1

HCC-78 = test system: HCC-78
Procedure, shortened: as §1

NCI-H596 = test system: NCI-H596
Procedure, shortened: as §1

NCI-H322M = test system: NCI-H322M
Procedure, shortened: as §1

NCI-H1651 = test system: NCI-H1651
Procedure, shortened: as §1

NCI-H650 = test system: NCI-H650
Procedure, shortened: as §1

LXF-289 = test system: LXF-289
Procedure, shortened: as §1

NCI-H2342 = test system: NCI-H2342
Procedure, shortened: as §1

NCI-H358 = test system: NCI-H358
Procedure, shortened: as §1

PC-3 [JPC-3] = test system: PC-3 [JPC-3]
Procedure, shortened: as §1

LK-2 = test system: LK-2
Procedure, shortened: as §1

NCI-H2087 = test system: NCI-H2087
Procedure, shortened: as §1

NCI-H1944 = test system: NCI-H1944
Procedure, shortened: as §1

CC1(C)CCC(c2ccc(Cl)cc2)=C(CN2CCN(c3ccc(C(=O)NS(=O)(=O)c4ccc(N[C@H](CCN5CCOCC5)CSc5ccccc5)c(S(=O)(=O)C(F)(F)F)c4)cc3)CC2)C1 [Navitoclax] + O=C(CCCCCCC(=O)Nc1ccccc1)NO [Vorinostat] (partner 1 µM)
relative viability (NCI-H838; first compound 0.005 µM): 0.678
relative viability (NCI-H838; first compound 0.01581 µM): 0.73
relative viability (NCI-H838; first compound 0.05 µM): 0.76
relative viability (NCI-H838; first compound 0.1581 µM): 0.73
relative viability (NCI-H838; first compound 0.5 µM): 0.667
relative viability (UMC-11; first compound 0.005 µM): 0.43
relative viability (UMC-11; first compound 0.01581 µM): 0.371
relative viability (UMC-11; first compound 0.05 µM): 0.39
relative viability (UMC-11; first compound 0.1581 µM): 0.312
relative viability (UMC-11; first compound 0.5 µM): 0.148
relative viability (HCC-15; first compound 0.005 µM): 0.808
relative viability (HCC-15; first compound 0.01581 µM): 0.831
relative viability (HCC-15; first compound 0.05 µM): 0.684
relative viability (HCC-15; first compound 0.1581 µM): 0.794
relative viability (HCC-15; first compound 0.5 µM): 0.809
relative viability (NCI-H1666; first compound 0.005 µM): 1
relative viability (NCI-H1666; first compound 0.01581 µM): 1.04
relative viability (NCI-H1666; first compound 0.05 µM): 1.03
relative viability (NCI-H1666; first compound 0.1581 µM): 0.999
relative viability (NCI-H1666; first compound 0.5 µM): 1.05
relative viability (LU99A; first compound 0.005 µM): 0.487
relative viability (LU99A; first compound 0.01581 µM): 0.451
relative viability (LU99A; first compound 0.1581 µM): 0.539
relative viability (LU99A; first compound 0.5 µM): 0.469
relative viability (LC-2-ad; first compound 0.005 µM): 0.716
relative viability (LC-2-ad; first compound 0.01581 µM): 0.686
relative viability (LC-2-ad; first compound 0.05 µM): 0.665
relative viability (LC-2-ad; first compound 0.1581 µM): 0.67
relative viability (LC-2-ad; first compound 0.5 µM): 0.712
relative viability (SK-MES-1; first compound 0.005 µM): 1.06
relative viability (SK-MES-1; first compound 0.01581 µM): 1.42
relative viability (SK-MES-1; first compound 0.05 µM): 1.15
relative viability (SK-MES-1; first compound 0.1581 µM): 1.1
relative viability (SK-MES-1; first compound 0.5 µM): 1.17
relative viability (LCLC-97TM1; first compound 0.005 µM): 0.857
relative viability (LCLC-97TM1; first compound 0.01581 µM): 0.745
relative viability (LCLC-97TM1; first compound 0.05 µM): 0.659
relative viability (LCLC-97TM1; first compound 0.1581 µM): 0.717
relative viability (LCLC-97TM1; first compound 0.5 µM): 0.979
relative viability (ChaGo-K-1; first compound 0.005 µM): 0.789
relative viability (ChaGo-K-1; first compound 0.01581 µM): 0.786
relative viability (ChaGo-K-1; first compound 0.05 µM): 0.496
relative viability (ChaGo-K-1; first compound 0.1581 µM): 0.759
relative viability (ChaGo-K-1; first compound 0.5 µM): 0.781
relative viability (BEN; first compound 0.005 µM): 0.617
relative viability (BEN; first compound 0.01581 µM): 0.658
relative viability (BEN; first compound 0.05 µM): 0.593
relative viability (BEN; first compound 0.1581 µM): 0.572
relative viability (BEN; first compound 0.5 µM): 0.417
relative viability (NCI-H661; first compound 0.005 µM): 0.769
relative viability (NCI-H661; first compound 0.01581 µM): 0.727
relative viability (NCI-H661; first compound 0.05 µM): 0.809
relative viability (NCI-H661; first compound 0.1581 µM): 0.763
relative viability (NCI-H661; first compound 0.5 µM): 0.772
relative viability (HCC-78; first compound 0.005 µM): 0.415
relative viability (HCC-78; first compound 0.01581 µM): 0.49
relative viability (HCC-78; first compound 0.05 µM): 0.429
relative viability (HCC-78; first compound 0.1581 µM): 0.431
relative viability (HCC-78; first compound 0.5 µM): 0.431
relative viability (NCI-H596; first compound 0.005 µM): 0.648
relative viability (NCI-H596; first compound 0.01581 µM): 0.739
relative viability (NCI-H596; first compound 0.05 µM): 0.299
relative viability (NCI-H596; first compound 0.1581 µM): 0.55
relative viability (NCI-H596; first compound 0.5 µM): 0.496
relative viability (NCI-H322M; first compound 0.005 µM): 1.02
relative viability (NCI-H322M; first compound 0.01581 µM): 1.06
relative viability (NCI-H322M; first compound 0.05 µM): 0.908
relative viability (NCI-H322M; first compound 0.1581 µM): 0.843
relative viability (NCI-H322M; first compound 0.5 µM): 0.999
relative viability (NCI-H1651; first compound 0.005 µM): 0.582
relative viability (NCI-H1651; first compound 0.01581 µM): 0.575
relative viability (NCI-H1651; first compound 0.05 µM): 0.466
relative viability (NCI-H1651; first compound 0.1581 µM): 0.573
relative viability (NCI-H1651; first compound 0.5 µM): 0.598
relative viability (NCI-H650; first compound 0.005 µM): 0.503
relative viability (NCI-H650; first compound 0.01581 µM): 0.448
relative viability (NCI-H650; first compound 0.05 µM): 0.431
relative viability (NCI-H650; first compound 0.1581 µM): 0.463
relative viability (NCI-H650; first compound 0.5 µM): 0.453
relative viability (LXF-289; first compound 0.005 µM): 0.752
relative viability (LXF-289; first compound 0.01581 µM): 0.842
relative viability (LXF-289; first compound 0.05 µM): 0.697
relative viability (LXF-289; first compound 0.1581 µM): 0.799
relative viability (LXF-289; first compound 0.5 µM): 0.814
relative viability (NCI-H2342; first compound 0.005 µM): 0.752
relative viability (NCI-H2342; first compound 0.01581 µM): 0.732
relative viability (NCI-H2342; first compound 0.05 µM): 0.814
relative viability (NCI-H2342; first compound 0.1581 µM): 0.804
relative viability (NCI-H2342; first compound 0.5 µM): 0.779
relative viability (NCI-H358; first compound 0.005 µM): 0.705
relative viability (NCI-H358; first compound 0.01581 µM): 0.816
relative viability (NCI-H358; first compound 0.05 µM): 0.689
relative viability (NCI-H358; first compound 0.1581 µM): 0.652
relative viability (NCI-H358; first compound 0.5 µM): 0.848
relative viability (PC-3 [JPC-3]; first compound 0.005 µM): 0.874
relative viability (PC-3 [JPC-3]; first compound 0.01581 µM): 0.868
relative viability (PC-3 [JPC-3]; first compound 0.05 µM): 0.877
relative viability (PC-3 [JPC-3]; first compound 0.1581 µM): 0.817
relative viability (PC-3 [JPC-3]; first compound 0.5 µM): 0.499
relative viability (LK-2; first compound 0.005 µM): 0.293
relative viability (LK-2; first compound 0.01581 µM): 0.33
relative viability (LK-2; first compound 0.05 µM): 0.367
relative viability (LK-2; first compound 0.1581 µM): 0.307
relative viability (LK-2; first compound 0.5 µM): 0.277
relative viability (NCI-H2087; first compound 0.005 µM): 0.675
relative viability (NCI-H2087; first compound 0.01581 µM): 0.467
relative viability (NCI-H2087; first compound 0.1581 µM): 0.853
relative viability (NCI-H2087; first compound 0.5 µM): 0.848
relative viability (NCI-H1944; first compound 0.005 µM): 0.54
relative viability (NCI-H1944; first compound 0.01581 µM): 0.603
relative viability (NCI-H1944; first compound 0.1581 µM): 0.457
relative viability (NCI-H1944; first compound 0.5 µM): 0.578
